# Reference: patent US20040171015A1, “Cyp450-specific dna probes and primers, and biological applications thereof” (priority 2003, published 2004)
# Like-named read-outs stand apart in the source and are kept apart here.
# B1: SEQ ID NO: 9: DNA molecule which hybridizes to CYP 2C19 (nucleic acid, listed as Homo sapiens)
# DNA: TTTCACTATCTGTGATGCTTCTTCTGACCCGTCATCTCACATTTTCCCTTCCCCCAAGATCTAGTGAACATTCAGCCTCCATTAAAAAAGTTTCACTGTGCAAATATATCTGCTATTCCCCATACTCTATAATAGTTACATTGAGT
# B2: SEQ ID NO: 8: DNA molecule which hybridizes to CYP 2C9 (nucleic acid, listed as Homo sapiens)
# DNA: TTTGTGTATTATAATTCAAAGGCATTTCTTTTCTGCATGTTCTAAATAAAAAGCATTATTATTTGCTG
# modifications: DNA, backbone and methylation of C not given here
# notes: DNA molecule which hybridizes to CYP 2C9
# Tests used:
# CYP 1A1 = test: membrane (slot blot) and Northern blot assay of CYP450 mRNA in treated human hepatocytes; type: cell-based; details: 48 hours exposure, 3-MC 5 microM
# Description: (§1) Total RNA contents are measured on a UV spectrophotometer.
# (§2) The labeled cDNA thus produced are then purified.
# CYP 1A2 = test: as above; type: cell-based; details: 48 hours exposure, 3-MC 5 microM
# Description: as §1, §2
# CYP 3A4 = system: CYP 3A4
# Description: (§3) 600 microliters of solution D (pH7; guanadium thiocyanate 4M; sodium citrate 25 mM; sarcosyl 0.5%; and 1.4 ml of beta-mercaptoethanol per 200 ml of solution D) have been added to each well so as to induce cell lysis. […] Are then successively added: 0.1 volume of sodium acetate (2M, pH4), 1 volume of water-saturated phenol and 0.2 volume of chloroform/isoamylalcohol (49/1, V/V). At each step, the suspension is vigorously vortexed, then left to cool on ice for 15-20 min, and centrifigated for 30 min at 4000 g and 4° C. An equal volume of isopropanol is added after removal of the aqueous phase.
# (§4) RNA are then precipitated (1 hour at −20° C.) and centrifuged for 30 min at 4000 g and 4° C. The supernatant is removed and the pellets are re-suspended in 2.7 ml of solution D. 2.7 ml of isopropanol are then added to the suspension, and the RNA are again precipitated (1 hour at −20° C.) and centrifugated. The pellets are washed with 5.4 ml of 70% ethanol. After a final centrifugation and removal of the supernatant, the pellets are air-dried, and re-suspended in sterile water containing DEPC (DEPC 1/1000 in water, then sterilization). Total RNA contents are measured on a UV spectrophotometer.
# (§5) 25 micrograms of total RNA have been placed into contact with oligo-dT (0.4 mM final of an equimolar composition of oligod(T) and of three oligosd(T) which have an A or a G or a C in 3′), and heated to 70° C. for 10 min, then incubated for 5 min on ice so as to allow oligo-dT hybridization on polyA RNA.
# (§6) The labeled cDNA are then hybridized with the filters (48 hours at 42° C.). […] Filters have then been washed with SSC 2× buffer without SDS for 30 min at 42° C., and exposed overnight in a phosphorimager cassette.
# (§7) For comparison purposes, Northern blots comprising 10 micrograms of total RNA have been incubated for hybridization with each cDNA probe separately. Quantifications are achieved by measuring band intensities per 18S quantity (as evaluated by ethidium bromide coloration).
# CYP450 = details: known inducers used for validation; cited from earlier work
# CYP 3A5 = details: hepatocytes
# Description: as §3, §4, §5, §6, §7
# CYP 3A7 = details: hepatocytes
# Description: as §3, §4, §5, §6, §7
# CYP 14 sub-family = details: human hepatocytes, 48 hours exposure; PB 1 microM, RIF 50 microM
# Description: RNA are then precipitated (1 hour at −20° C.) and centrifuged for 30 min at 4000 g and 4° C. The supernatant is removed and the pellets are re-suspended in 2.7 ml of solution D. 2.7 ml of isopropanol are then added to the suspension, and the RNA are again precipitated (1 hour at −20° C.) and centrifugated. The pellets are washed with 5.4 ml of 70% ethanol. After a final centrifugation and removal of the supernatant, the pellets are air-dried, and re-suspended in sterile water containing DEPC (DEPC 1/1000 in water, then sterilization). Total RNA contents are measured on a UV spectrophotometer. […]
# CYP450 isoforms = test: specificity assays of the cDNA probes (hybridization on filters and Northern blot); type: binding, human; details: 32P-labeled probe, filters with plasmidic DNA / 3′-NTR, Northern blot of total RNA
# From the text: On nylon® membrane filters, the following DNA sequences were deposited:
# either the sequences obtained by amplification of 50 nanograms of plasmidic DNA as described in the above example 1, followed by purification and UV spectrophotometry dosage (Power Wave X2, Biotek instruments®, St Quentin en Yvelines, France),
# or plasmidic DNA (50 nanograms of linearized plasmid containing a probe inserted therein, or of empty pUC plasmid) obtained from the clones described in the above example 1 after linearization by Bam H1 (20 IU for 20 micrograms of plasmidic DNA, 1 hour at 37° C.).
# The amplified sequences as well as the plasmidic ones were denatured by EDTA (final concentration of 10 mM, 10 min at 65° C.) and then by NaOH (final concentration of 0.1 M, 30 min at ambient temperature), and neutralized by SSC6× buffer, before being deposited onto a nylon® membrane (Biosupport®, Pall, Portsmouth, UK). Binding to the membrane was achieved by exposure to UV for 4 min and heating at 80° C. for 2 hours.
# Three types of specificity assays have been performed:
# intra-probe specificity: each cDNA probe (SEQ ID NO: 1-14) has been labeled with ^32P following Megaprime® DNA Labelling System (Amersham Pharmacia Biotech, Elancourt, France) and according to random primer polymerization. […]
molecule,measurement,setting,value
Cc1ccc2cc3c(ccc4ccccc43)c3c2c1CC3 [3-methylcholanthrene],change in CYP 1A1 (hybridization signal of reverse-transcribed total RNA),CYP 1A1,increase
same,change in CYP 1A2 (hybridization signal of reverse-transcribed total RNA),CYP 1A2,also but more weakly
same,change in CYP 3A4 (hybridization signal of reverse-transcribed total RNA),"CYP 3A4; human hepatocytes, 48 hours exposure, 3-MC 5 microM, PB 1 microM, RIF 50 microM",decrease
same,CYP450 induced,CYP450,CYP 1A
"CCC1(c2ccccc2)C(=O)NC(=O)NC1=O [phenobarbital, Phenobarbital]",change in CYP 3A4 (hybridization signal of reverse-transcribed total RNA),CYP 3A4; hepatocytes,strong decrease
same,variation of CYP 3A5 (hybridization signal),CYP 3A5,no variation
same,variation of CYP 3A7 (hybridization signal),CYP 3A7,no variation
same,variation of CYP 14 sub-family (hybridization signal),CYP 14 sub-family,no variation
same,CYP450 induced,CYP450,CYP 3A
B1,"hybridization specificity of the probe (cross-hybridization with other CYP450 isoforms, empty plasmid, other RNA from human hepatocytes, 3′-NTR)",CYP450 isoforms,may hybridize in the 3′-NTR region of CYP 2C9
B2,"hybridization specificity of the probe (cross-hybridization with other CYP450 isoforms, empty plasmid, other RNA from human hepatocytes, 3′-NTR)",CYP450 isoforms,only hybridizes to its CYP 2C9 target
